Source: patent publication US12139520B2 (priority 2020, dated 2024)
Bridge positions count the residues as written; N and C are the ends. Square brackets hold non-standard residues; d marks the D form. Peptide text beside a SMILES is read from it. Hyp = O=C(O)[C@@H]1C[C@@H](O)CN1; Cit = NC(=O)NCCC[C@H](N)C(=O)O

Test: Physical stability of peptide analogues (Thioflavin T fibrillation)
Type: physicochemical
Conditions: maximum ThT signal normalized between hAMY maximum and buffer background; 40° C., shaking, four days; pH 7 per table title
Experimental: General Protocols for Determination of Physical Stability of Peptide Analogues
Peptides were dissolved in buffers (50 mM sodium acetate at pH 4 or 50 mM sodium phosphate at pH 7) and incubated for one hour. The samples were then divided into two replicates of 80 μl in a black 384 well plate (μ-clear, Greiner Bio-One) and mixed with Thioflavin T (ThT) to a final concentration of 4 μM. The plate was sealed and placed in a plate reader (CLARIOstar, BMG) where the temperature was set at 40° C. during the course of the experiment. The samples were further stressed by shaking the plate at 700 rpm (linear) for five minutes before every measurement. The fluorescence was measured every 10 min for four days by exciting the ThT at 450 nm and measuring the emission at 480 nm. For each peptide, the ThT signal over time was smoothened using Local Polynomial Regression fitting (LOESS) as implemented in the statistical programming environment R. For the smoothened data, the maximum ThT signal was normalized in percent between the maximum ThT signal for hAMY and the buffer background.

SMILES	Max ThT signal (%)
CC[C@H](C)[C@H](NC(=O)[C@H](CCC(N)=O)NC(=O)[C@H](Cc1c[nH]cn1)NC(=O)[C@H](C)NC(=O)[C@H](CC(C)C)NC(=O)[C@H](CCCNC(=N)N)NC(=O)[C@H](CCC(N)=O)NC(=O)[C@@H](NC(=O)[C@@H](NC(=O)[C@@H]1CSSC[C@H](NC(=O)CN)C(=O)N[C@@H](CCCNC(=N)N)C(=O)N[C@@H]([C@@H](C)O)C(=O)NCC(=O)N[C@@H]([C@@H](C)O)C(=O)N1)[C@@H](C)O)C(C)C)C(=O)N[C@@H](Cc1ccc(O)cc1)C(=O)N[C@@H](CCC(N)=O)C(=O)N[C@@H](Cc1ccccc1)C(=O)N[C@H](C(=O)N[C@@H](CC(=O)O)C(=O)N[C@@H](CCCCN)C(=O)N[C@@H](Cc1ccccc1)C(=O)N[C@@H](CCCCN)C(=O)N[C@@H](CC(=O)O)C(=O)N[C@@H](CC(N)=O)C(=O)N[C@H](C(=O)N[C@@H](C)C(=O)N1CCC[C@H]1C(=O)N[C@@H](CCCNC(=N)N)C(=O)N[C@@H](CO)C(=O)N[C@@H](CCCCN)C(=O)N[C@H](C(=O)N[C@@H](CO)C(=O)N1CCC[C@H]1C(=O)N[C@@H](CCC(N)=O)C(=O)N[C@H](C(=O)N1CCC[C@H]1C(N)=O)[C@@H](C)O)[C@@H](C)CC)C(C)C)[C@@H](C)O [compound 235] (H-GCRTGTCTVQRLAHQIYQFTDKFKDNVAPRSKISPQTP-NH2; disulfide 2-7; N-terminus assumed)	0.800
CC[C@H](C)[C@H](NC(=O)[C@H](CCC(N)=O)NC(=O)[C@H](Cc1c[nH]cn1)NC(=O)[C@H](C)NC(=O)[C@H](CC(C)C)NC(=O)[C@H](CCCNC(=N)N)NC(=O)[C@H](CCC(N)=O)NC(=O)[C@@H](NC(=O)[C@@H](NC(=O)[C@@H]1CSSC[C@H](NC(=O)CN)C(=O)N[C@@H](CCCNC(=N)N)C(=O)N[C@@H]([C@@H](C)O)C(=O)NCC(=O)N[C@@H]([C@@H](C)O)C(=O)N1)[C@@H](C)O)C(C)C)C(=O)N[C@@H](Cc1ccc(O)cc1)C(=O)N[C@@H](CCC(N)=O)C(=O)N[C@@H](Cc1ccccc1)C(=O)N[C@H](C(=O)N[C@@H](CC(=O)O)C(=O)N[C@@H](CCCCN)C(=O)N[C@@H](Cc1ccccc1)C(=O)N[C@@H](CCCCN)C(=O)N[C@@H](CC(=O)O)C(=O)N[C@@H](CC(N)=O)C(=O)N[C@H](C(=O)N[C@@H](C)C(=O)N1CCC[C@H]1C(=O)N[C@@H](CCCNC(=N)N)C(=O)N[C@@H](CO)C(=O)N[C@@H](CCCCN)C(=O)N[C@H](C(=O)N[C@@H](CO)C(=O)N1CCC[C@H]1C(=O)N[C@@H](CCC(N)=O)C(=O)N[C@H](C(=O)N[C@@H](C)C(N)=O)[C@@H](C)O)[C@@H](C)CC)C(C)C)[C@@H](C)O [compound 241] (H-GCRTGTCTVQRLAHQIYQFTDKFKDNVAPRSKISPQTA-NH2; disulfide 2-7; N-terminus assumed)	0.900
CC[C@H](C)[C@@H]1NC(=O)[C@H](CCCNC(=N)N)NC(=O)[C@@H](NC(=O)CN)CSSC[C@@H](C(=O)N[C@H](C(=O)N[C@H](C(=O)N[C@@H](CCC(N)=O)C(=O)N[C@@H](CCCNC(=N)N)C(=O)N[C@@H](CC(C)C)C(=O)N[C@@H](C)C(=O)N[C@@H](Cc2c[nH]cn2)C(=O)N[C@@H](CCC(N)=O)C(=O)N[C@H](C(=O)N[C@@H](Cc2ccc(O)cc2)C(=O)N[C@@H](CCC(N)=O)C(=O)N[C@@H](Cc2ccccc2)C(=O)N[C@H](C(=O)N[C@@H](CC(N)=O)C(=O)N[C@@H](CCCCN)C(=O)N[C@@H](CC(=O)O)C(=O)N[C@@H](CCCCN)C(=O)N[C@@H](CC(=O)O)C(=O)N[C@@H](CC(N)=O)C(=O)N[C@H](C(=O)N[C@@H](C)C(=O)N2CCC[C@H]2C(=O)N[C@@H](CCCNC(=N)N)C(=O)N[C@@H](CO)C(=O)N[C@@H](CCCCN)C(=O)N[C@H](C(=O)N[C@@H](CO)C(=O)N2CCC[C@H]2C(=O)N[C@@H](CCC(N)=O)C(=O)N[C@H](C(=O)N2C[C@H](O)C[C@H]2C(N)=O)[C@@H](C)O)[C@@H](C)CC)C(C)C)[C@@H](C)O)[C@@H](C)CC)C(C)C)[C@@H](C)O)NC(=O)[C@H]([C@@H](C)O)NC(=O)CNC1=O [compound 198] (H-GCRIGTCTVQRLAHQIYQFTNKDKDNVAPRSKISPQT[Hyp]-NH2; disulfide 2-7; N-terminus assumed)	4.200

The next lines start with the values.

Max ThT signal (%)	SMILES
15.700	CC[C@H](C)[C@H](NC(=O)[C@H](CCC(N)=O)NC(=O)[C@H](Cc1c[nH]cn1)NC(=O)[C@H](C)NC(=O)[C@H](CC(C)C)NC(=O)[C@H](Cc1c[nH]c2ccccc12)NC(=O)[C@H](CCC(N)=O)NC(=O)[C@@H](NC(=O)[C@@H](NC(=O)[C@@H]1CSSC[C@H](NC(=O)CN)C(=O)N[C@@H](CCCNC(=N)N)C(=O)N[C@@H](Cc2ccccc2)C(=O)NCC(=O)N[C@@H]([C@@H](C)O)C(=O)N1)[C@@H](C)O)C(C)C)C(=O)N[C@@H](Cc1ccc(O)cc1)C(=O)N[C@@H](CCC(N)=O)C(=O)N[C@@H](Cc1ccccc1)C(=O)N[C@H](C(=O)N[C@@H](CC(=O)O)C(=O)N[C@@H](CCCCN)C(=O)N[C@@H](CC(=O)O)C(=O)N[C@@H](CCCCN)C(=O)N[C@@H](CC(=O)O)C(=O)N[C@@H](CC(N)=O)C(=O)N[C@H](C(=O)N[C@@H](C)C(=O)N1CCC[C@H]1C(=O)N[C@@H](CCCNC(=N)N)C(=O)N[C@H](C(=O)N[C@@H](CCCCN)C(=O)N[C@H](C(=O)N[C@@H](CO)C(=O)N1CCC[C@H]1C(=O)N[C@@H](CCC(N)=O)C(=O)NCC(=O)N1C[C@H](O)C[C@H]1C(N)=O)[C@@H](C)CC)[C@@H](C)O)C(C)C)[C@@H](C)O [compound 350] (H-GCRFGTCTVQWLAHQIYQFTDKDKDNVAPRTKISPQG[Hyp]-NH2; disulfide 2-7; N-terminus assumed)
4.700	CC[C@H](C)[C@H](NC(=O)[C@H](C)NC(=O)CNC(=O)[C@H](CC(=O)O)NC(=O)[C@H](CCCCN)NC(=O)[C@H](CC(=O)O)NC(=O)[C@@H](NC(=O)[C@H](Cc1ccccc1)NC(=O)[C@H](CCC(N)=O)NC(=O)[C@H](Cc1ccc(O)cc1)NC(=O)[C@H](CC(C)C)NC(=O)[C@H](Cc1ccccc1)NC(=O)[C@H](Cc1c[nH]cn1)NC(=O)[C@H](C)NC(=O)[C@H](CC(C)C)NC(=O)[C@H](CCCNC(N)=O)NC(=O)[C@H](CCC(N)=O)NC(=O)[C@@H](NC(=O)[C@@H](NC(=O)[C@@H]1CSSC[C@H](NC(=O)CN)C(=O)N[C@@H](CCCNC(=N)N)C(=O)N[C@@H](Cc2ccccc2)C(=O)NCC(=O)N[C@@H]([C@@H](C)O)C(=O)N1)[C@@H](C)O)C(C)C)[C@@H](C)O)C(=O)N[C@@H](C)C(=O)N1CCC[C@H]1C(=O)N[C@@H](CCCNC(=N)N)C(=O)N[C@H](C(=O)N[C@@H](CCCCN)C(=O)N[C@H](C(=O)NCC(=O)N[C@@H](CO)C(=O)N[C@@H](CCC(N)=O)C(=O)NCC(=O)N[C@@H](Cc1ccc(O)cc1)C(N)=O)[C@@H](C)CC)[C@@H](C)O [compound 282] (H-GCRFGTCTVQ[Cit]LAHFLYQFTDKDGAIAPRTKIGSQGY-NH2; disulfide 2-7; N-terminus assumed)
